Measured values from article PMC4684281, “Antitumor Effects and Mechanism of Novel Emodin Rhamnoside Derivatives against Human Cancer Cells In Vitro” (PLoS ONE, 2015).
Where “and” joins values, the source holds several entries; their conditions need not be identical. Equal entries are not always repeated.

What was measured:
MCF-7 cells = test: MTT cell viability assay, MCF-7; format: cell-based; settings: Homo sapiens, MCF7
Method: (§1) The viability of cancer cells was evaluated by MTT assay. Briefly, cells were inoculated in 96-well culture plates at the density of 1×10^4/well with complete medium containing 10% fetal calf serum in a final volume of 0.2 mL. Cells were incubated at 37°C for at least 24 hours to allow optimal attachment. When the cells reached 60% confluence, they were treated with Cisplatin, HCPT and emodin rhamnopyranosides derivatives in various concentrations, and incubated in a humidity-controlled 5%CO2 incubator at 37°C for 72 hours. Medium were exchanged once every 24 hours. Cell control group and blank group were set up in the same manner, with each group having six parallel wells. Cell survival was assessed by directly adding 22 μL of 5mg/mL MTT to 0.2 mL medium. After three hours, the formazan precipitate was dissolved in 200μL isopropanol per well, and completely mixed under room temperature. Afterwards, the optical density of each well was detected at 570 nm wavelength by iMark microplate reader (Bio-rad,USA). This experiment was repeated at least three times.

OVCAR-3 cells = test: Flow cytometry apoptosis analysis (Annexin V/7-AAD), OVCAR-3; format: cell-based, Human; settings: 48h (Fig 8 legend: 72h); for Late apoptosis: control 4.87±1.42; for Early apoptosis: control 13.01±5.81; for Living cell: control 81.36±8.14
L02 normal liver cells = test: MTT cell viability assay, L02; format: cell-based; settings: Homo sapiens; MTT at 72h, n=3, mean±S.E.M; read-out: IC50 for EM-d-Rha, L02
Method: as §1

HepG2 cells [1] = test: Morphological analysis (bright-field microscopy); format: cell-based, Human; settings: HepG2, 0.1-62.5μM, 48 h, dose dependent
Method: For morphological observation, HepG2 cells in logarithmic growth phase were seeded in a 96-well plate at the density of 1×10^4/well with 0.2 mL complete medium containing 10% fetal calf serum. Cells were allowed to attach at 37°C for 24 hours. Then cells were treated with EM-d-Rha and HCPT at a specific concentration. Each group has six parallel wells. […] Medium were exchanged once every 24 hours.

HepG2 cells [2] = test: DNA ladder assay; format: cell-based, Human; settings: HepG2, 2.5μM, 5.0μM and 10.0μM
Method: DNA ladder formation is an important criterion to determine cells apoptosis. To confirm the apoptosis induction effect, the analysis of DNA fragmentation was conducted. HepG2 cells in logarithmic growth phase were inoculated in 10cm diameter culture plates at a density of 5×10^5 cells with 12 mL complete medium containing 10% fetal calf serum, and allowed to attach at 37°C for 24 hours. Afterwards, cells were treated with EM-d-Rha and Cisplatin at a specific concentration. Cells were cultured and harvested as described previously. Finally, DNA of all samples was extracted using the apoptosis DNA ladder detection kit following the manufacturer’s instructions. The DNA fragmentation was assayed by electrophoresis on a 1.5% agarose gel containing […] ethidium bromide (EtBr) at 5V/cm for 2.5hours and photographed under ultraviolet. The size of the DNA fragmentation was compared with the marker (molecular weight standard).

HepG2 cells [3] = test: Flow cytometry apoptosis analysis (Annexin V/7-AAD), HepG2; format: cell-based, Human; settings: 48h (Fig 7 legend: 72h); for Early apoptosis: control 6.16±2.20; for Late apoptosis: control 10.71±1.42; for Living cell: control 79.87±1.84
Method: Flow cytometry analysis was determined using Annexin V-APC/7-AAD Apoptosis Detection Kit (BD Parmagen, U.S.A). HepG2 cells were inoculated at a density of 3×10^5/well in 6-well plates, and allowed to attach at 37°C for 24 hours. Afterwards, cells were treated with specific concentration EM-d-Rha, and cultured and harvested as described previously. Cells of each sample were resuspended in […] cold binding buffer before adding 2.5μL Annexin V-APC conjugate and 5μL 7-AAD solution. Then cells were incubated for 15 min on ice in the dark. Cell suspension was diluted to a final volume of 250μL with ice-cold, 1× Annexin V Binding Buffer. The assay was conducted by flow cytometry (BD FACSCalibur,USA). Scatter plots were generated using Cell Quest pro software (BD Biosciences, San Jose, CA). The experiment was repeated three times.

HepG2 cells [4] = test: Fluorescence microscopy assay (Hoechst 33342); format: cell-based, Human; settings: HepG2, varying concentrations (0.1μM; 0.5μM; 2.5μM), 48h, dosage-dependent
Method: HepG2 cells were inoculated in duplicate at 3×10^5/well density in 6-well plate, and allowed to attach at 37°C for 24 hours. Afterwards, cells were treated with 10 μM HCPT, 25 μM emodin and specific concentration EM-d-Rha (0.1μM, 0.5μM, 2.5μM), respectively. Cell control group was set in the same way. […] Medium were exchanged as described previously. In the end, all medium were discarded and cells were digested with 2mL 0.25% Trypsin-EDTA solution at 37°C for 5 min. After cells were harvested, cells were washed with PBS twice followed by centrifuging at 300×g for 5 minutes. Finally, cells were re-suspended in 100μL cold PBS after the supernatant was discarded. Cells were cultured in the dark for 10 minutes at room temperature after adding 100μL 1mg/mL Hoechst 33342 staining solution. Cells were harvested again as described previously to discard the staining solution. Wash the harvested cells twice with PBS before applying to the clean glass slides. The morphological changes of cells nuclei were observed and photographed under the fluorescence microscope (Olympus, Japan) at 350 nm excitation wavelength. The experiment was repeated three times.

[5] = OVCAR-3, 10μM, listed as EM-d-Rha
[6] = HepG2, 10μM, listed as EM-d-Rha

**Q.** With `CC(=O)O[C@@H]1[C@@H](O[C@@H]2O[C@@H](C)[C@H](O)[C@@H](OC(C)=O)[C@H]2OC(C)=O)[C@H](C)O[C@@H](Oc2cc(O)c3c(c2)C(=O)c2cc(C)cc(O)c2C3=O)[C@@H]1OC(C)=O` [S-8, 3-(2”,3”-Di-O-acetyl-α-L-rhamnopyranosyl-(1→4)-2’,3’-di-O-acetyl-α-L-rhamnopyranosyl)-emodin] as the compound, how does the inhibition at 0.1 µM (MCF-7 cells; MCF-7, 0.1μM, MTT 72h, read-out: The inhibition rate of EM-d-Rha) read?
**A.** The inhibition at 0.1 µM was 16.8 ± 1.4%.

**Q.** And the inhibition at 0.5 µM (MCF-7 cells; MCF-7, 0.5μM, MTT 72h, read-out: The inhibition rate of EM-d-Rha)?
**A.** Its inhibition at 0.5 µM is 20.1 ± 3.83%.

**Q.** And the inhibition at 2.5 µM (MCF-7 cells; MCF-7, 2.5μM, MTT 72h, read-out: The inhibition rate of EM-d-Rha)?
**A.** The inhibition at 2.5 µM was 41.4 ± 6.53%.

**Q.** What about the inhibition at 12.5 µM (MCF-7 cells; MCF-7, 12.5μM, MTT 72h, read-out: The inhibition rate of EM-d-Rha) of the same compound?
**A.** Its inhibition at 12.5 µM is 62.7 ± 6.81%.

**Q.** What about the inhibition at 62.5 µM (MCF-7 cells; MCF-7, 62.5μM, MTT 72h, read-out: The inhibition rate of EM-d-Rha) of the same compound?
**A.** Its inhibition at 62.5 µM is 77.1 ± 5.1%.

**Q.** What about the IC50 (MCF-7 cells; MTT at 72h, n=3, mean±S.E.M, read-out: IC50 for EM-d-Rha, MCF-7) of the same compound?
**A.** The IC50 was 8.56 ± 1.04 µM.

**Q.** What about the Late apoptosis (OVCAR-3 cells; OVCAR-3, 2.5μM) of the same compound?
**A.** The Late apoptosis was 3.30±2.95%.

**Q.** What about the Early apoptosis (OVCAR-3 cells; OVCAR-3, 2.5μM) of the same compound?
**A.** The Early apoptosis was 70.60±23.06 %.

**Q.** What about the Living cell (OVCAR-3 cells; OVCAR-3, 2.5μM) of the same compound?
**A.** The Living cell was 25.82±20.14 %.

**Q.** And the Late apoptosis (OVCAR-3 cells; OVCAR-3, 5μM)?
**A.** The Late apoptosis was 0.81±0.05 %.

**Q.** What about the Early apoptosis (OVCAR-3 cells; OVCAR-3, 5μM) of the same compound?
**A.** The Early apoptosis was 90.52±0.20 %.

**Q.** What about the Living cell (OVCAR-3 cells; OVCAR-3, 5μM) of the same compound?
**A.** The Living cell was 8.60±0.19 %.

**Q.** And the Late apoptosis (OVCAR-3 cells; OVCAR-3, 10μM)?
**A.** Its Late apoptosis is 0.35±0.06 %.

**Q.** What about the Early apoptosis (OVCAR-3 cells; [5]) of the same compound?
**A.** Its Early apoptosis is 95.09% and 95.09±1.03 %.

**Q.** And the Living cell (OVCAR-3 cells; [5])?
**A.** Its Living cell is 4.53% and 4.53±0.99 %.

**Q.** What about the IC50 (L02 normal liver cells) of the same compound?
**A.** Its IC50 is 19.7 ± 1.7 µM.

**Q.** And the “Cell morphology (bright-field)” value (HepG2 cells [1])?
**A.** The value was “morphological changes of apoptosis such as reduction in cell volume and losing cell-cell contacts”.

**Q.** And the “DNA fragmentation (agarose gel electrophoresis)” value (HepG2 cells [2])?
**A.** The value was “typical ladder or fragmentation shape”.

**Q.** What about the Early apoptosis (HepG2 cells [3]; HepG2, 2.5μM) of the same compound?
**A.** The Early apoptosis was 40.40±5.70 %.

**Q.** And the Late apoptosis (HepG2 cells [3]; HepG2, 2.5μM)?
**A.** The Late apoptosis was 7.50±1.04%.

**Q.** And the Living cell (HepG2 cells [3]; HepG2, 2.5μM)?
**A.** The Living cell was 51.20±5.10 %.

**Q.** What about the Early apoptosis (HepG2 cells [3]; HepG2, 5μM) of the same compound?
**A.** Its Early apoptosis is 45.20±4.17 %.

**Q.** And the Late apoptosis (HepG2 cells [3]; HepG2, 5μM)?
**A.** The Late apoptosis was 17.53±3.16%.

**Q.** And the Living cell (HepG2 cells [3]; HepG2, 5μM)?
**A.** Its Living cell is 36.40±3.23 %.

**Q.** What about the Early apoptosis (HepG2 cells [3]; [6]) of the same compound?
**A.** Its Early apoptosis is 78.77% and 78.77±1.22 %.

**Q.** And the Late apoptosis (HepG2 cells [3]; HepG2, 10μM)?
**A.** Its Late apoptosis is 4.22±1.63%.

**Q.** And the Living cell (HepG2 cells [3]; [6])?
**A.** The Living cell was 16.53% and 16.53±0.68 %.

**Q.** And the “Nuclear morphology, Hoechst 33342” value (HepG2 cells [4])?
**A.** Its value is “nuclear shrinkage and DNA condensation”.
